Experimental data as given in PMC12621043, “Un-LOK-ing a New Approach for Conformational Selective Targeting of STK10 (LOK)” (ACS Medicinal Chemistry Letters, 2025).

Columns and labels:
Assay in all cases: DSF Tm panel
Assay type in all cases: binding
Conditions in all cases: 10 μM compound
BMPR2A = molecular target: T1, BMPR2A (Homo sapiens, UniProt Q13873)
T1 construct: purchased in-house DSF kinase panel (SGC-style construct names; the trailing letter is the construct ID)
T1 sequence (Q13873 27-1038): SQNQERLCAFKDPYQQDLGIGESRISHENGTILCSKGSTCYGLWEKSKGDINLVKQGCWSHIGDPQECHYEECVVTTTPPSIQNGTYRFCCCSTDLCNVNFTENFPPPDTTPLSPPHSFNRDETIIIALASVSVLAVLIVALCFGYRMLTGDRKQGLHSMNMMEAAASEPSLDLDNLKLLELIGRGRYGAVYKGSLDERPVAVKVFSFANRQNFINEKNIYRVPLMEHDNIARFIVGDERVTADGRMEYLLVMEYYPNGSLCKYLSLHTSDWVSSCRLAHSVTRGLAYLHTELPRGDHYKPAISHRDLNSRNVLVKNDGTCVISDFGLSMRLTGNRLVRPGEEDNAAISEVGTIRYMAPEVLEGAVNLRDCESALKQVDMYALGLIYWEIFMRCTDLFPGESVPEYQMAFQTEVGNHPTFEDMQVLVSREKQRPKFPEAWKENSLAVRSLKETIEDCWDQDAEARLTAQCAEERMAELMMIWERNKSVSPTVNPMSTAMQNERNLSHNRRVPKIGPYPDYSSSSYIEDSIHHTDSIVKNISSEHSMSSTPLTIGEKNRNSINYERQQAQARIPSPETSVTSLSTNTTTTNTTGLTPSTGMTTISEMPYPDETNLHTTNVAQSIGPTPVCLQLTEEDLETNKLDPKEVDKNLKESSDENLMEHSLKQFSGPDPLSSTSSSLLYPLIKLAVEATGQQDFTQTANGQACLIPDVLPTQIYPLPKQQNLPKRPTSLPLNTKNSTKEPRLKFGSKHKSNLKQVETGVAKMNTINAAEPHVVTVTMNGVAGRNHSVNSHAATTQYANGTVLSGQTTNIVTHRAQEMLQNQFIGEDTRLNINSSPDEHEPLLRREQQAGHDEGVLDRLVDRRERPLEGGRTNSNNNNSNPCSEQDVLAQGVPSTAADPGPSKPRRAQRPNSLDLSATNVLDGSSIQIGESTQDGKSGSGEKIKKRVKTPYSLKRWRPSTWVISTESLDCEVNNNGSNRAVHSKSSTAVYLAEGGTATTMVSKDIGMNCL
Protocol: (§1) The synthesized urea-based derivatives were evaluated in a panel of kinases by differential scanning fluorescence (DSF) to investigate their selectivity profile. A positive ΔT m in the DSF assay indicates stabilization of the protein upon ligand binding in comparison to its apo state, with higher thermal shifts generally correlating with stronger binding. For this purpose, we used our internal kinase selectivity panel (∼90 kinases) along with staurosporine as a positive control. […] This was also reflected in the overall low selectivity score (S) throughout the series, which is determined by the ratio between the number of kinases that are stabilized above 5 °C and the total number of kinases tested (Figure ). Motivated by these findings, we further validated the entire series by orthogonal binding and activity assays to determine the in vitro and cellular potency and selectivity of the developed series in comparison to the selected reference compounds. […]
(§2) was performed as previously described.[1,2] Briefly, recombinant protein kinase domains at a concentration of 2 μM were mixed with 10 μM compound in a buffer containing 20 mM HEPES, […]
(§3) probe (1 µl per mL). Subsequently, temperature-dependent protein unfolding profiles were […]
(§4) emission filters were set to 465 nm and 590 nm, respectively. The temperature was raised with a step rate of 3 °C per minute. […]
(§5) inflection point of the transition curve. […]
(§6) previously.[3] In brief, STK10, STK3, STK4 and SLK were obtained as plasmids cloned in […]
(§7) Plasmids were transfected into
(§8) KD concentration taken from TracerDB (tracerdb.org)[4] were pipetted into white 384-well

CAMK4A = molecular target: T2, CAMK4A (Homo sapiens, UniProt Q16566)
T2 construct: purchased in-house DSF kinase panel (SGC-style construct names; the trailing letter is the construct ID)
T2 sequence (Q16566 1-473): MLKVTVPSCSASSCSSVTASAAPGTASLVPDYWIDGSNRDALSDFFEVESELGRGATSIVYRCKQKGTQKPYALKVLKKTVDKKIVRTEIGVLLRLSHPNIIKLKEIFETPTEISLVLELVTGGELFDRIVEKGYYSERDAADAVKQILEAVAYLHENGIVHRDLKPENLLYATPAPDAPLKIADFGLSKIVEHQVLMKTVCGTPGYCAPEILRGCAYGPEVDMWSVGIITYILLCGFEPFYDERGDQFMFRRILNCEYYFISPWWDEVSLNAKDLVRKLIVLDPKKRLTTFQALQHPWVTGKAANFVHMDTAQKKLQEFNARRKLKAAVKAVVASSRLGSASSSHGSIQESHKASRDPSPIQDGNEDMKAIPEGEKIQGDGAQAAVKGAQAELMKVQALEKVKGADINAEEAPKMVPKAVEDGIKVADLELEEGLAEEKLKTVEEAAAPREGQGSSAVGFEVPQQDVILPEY
Protocol: as §1, §2, §3, §4, §5, §6, §7, §8

GAKA = molecular target: T3, GAKA (Homo sapiens, UniProt O14976)
T3 construct: purchased in-house DSF kinase panel (SGC-style construct names; the trailing letter is the construct ID)
T3 sequence (O14976 14-351): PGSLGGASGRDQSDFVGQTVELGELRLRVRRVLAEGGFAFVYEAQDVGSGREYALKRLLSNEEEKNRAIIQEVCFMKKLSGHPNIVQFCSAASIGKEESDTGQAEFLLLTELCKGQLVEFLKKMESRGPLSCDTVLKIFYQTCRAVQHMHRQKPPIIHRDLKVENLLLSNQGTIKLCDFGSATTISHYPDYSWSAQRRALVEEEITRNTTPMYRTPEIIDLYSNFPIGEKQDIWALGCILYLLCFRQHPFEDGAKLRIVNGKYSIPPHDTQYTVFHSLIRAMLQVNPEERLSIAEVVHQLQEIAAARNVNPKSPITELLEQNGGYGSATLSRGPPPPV
Protocol: as §1, §2, §3, §4, §5, §6, §7, §8

STK17AA = molecular target: T4, STK17AA (Homo sapiens, UniProt Q9UEE5)
T4 construct: purchased in-house DSF kinase panel (SGC-style construct names; the trailing letter is the construct ID)
T4 sequence (Q9UEE5 61-321): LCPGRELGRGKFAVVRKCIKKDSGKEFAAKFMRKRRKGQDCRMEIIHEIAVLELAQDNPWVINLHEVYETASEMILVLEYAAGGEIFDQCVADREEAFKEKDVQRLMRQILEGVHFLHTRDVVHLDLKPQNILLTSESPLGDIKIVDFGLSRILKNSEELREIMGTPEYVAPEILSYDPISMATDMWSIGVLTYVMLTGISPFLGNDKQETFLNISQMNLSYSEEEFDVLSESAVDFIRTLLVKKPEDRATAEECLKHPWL
Protocol: as §1, §2, §3, §4, §5, §6, §7, §8

TAF1A = tested on: TAF1A
Protocol: as §1, §2, §3, §4, §5, §6, §7, §8

Structure (SMILES) | ΔTm at 10 µM (BMPR2A) [°C] | ΔTm at 10 µM (CAMK4A) [°C] | ΔTm at 10 µM (GAKA) [°C] | ΔTm at 10 µM (STK17AA) [°C] | ΔTm TAF1A (TAF1A)
O=C(NCc1ccccc1)Nc1ccc2cc1OCCOCCNc1ccn3ncc-2c3n1 [compound 16] | 4.4 | 0.5 | 6.1 | 4.9 | 0,4 °C
O=C(NCc1ccccc1Cl)Nc1ccc2cc1OCCOCCNc1ccn3ncc-2c3n1 [compound 17] | 2.6 | 0.6 | 4.8 | 2.3 | 0,5 °C
O=C(NCc1cccc(Cl)c1)Nc1ccc2cc1OCCOCCNc1ccn3ncc-2c3n1 [compound 18] | 2.9 | 1.3 | 4.1 | 5.1 | 0,5 °C
O=C(NCc1ccc(Cl)cc1)Nc1ccc2cc1OCCOCCNc1ccn3ncc-2c3n1 [compound 19] | 2.3 | 1 | 4.4 | 2 | -0,4 °C
O=C(NCc1ccc(Cl)cc1Cl)Nc1ccc2cc1OCCOCCNc1ccn3ncc-2c3n1 [compound 20] | 1.1 | 0.4 | 2.4 | 1.6 | 0,6 °C
O=C(NCc1ccc(Cl)cc1F)Nc1ccc2cc1OCCOCCNc1ccn3ncc-2c3n1 [compound 21] | 1.8 | 0.9 | 3.9 | 2 | 0,4 °C
Cc1cc(Cl)ccc1CNC(=O)Nc1ccc2cc1OCCOCCNc1ccn3ncc-2c3n1 [compound 23] | 1.5 | 0.6 | 2.8 | 0.7 | 0,6 °C
Cc1cc(Br)ccc1CNC(=O)Nc1ccc2cc1OCCOCCNc1ccn3ncc-2c3n1 [compound 24] | 2.3 | 0.8 | 5.9 | 2.3 | 0,1 °C
Cc1ccc(F)cc1CNC(=O)Nc1ccc2cc1OCCOCCNc1ccn3ncc-2c3n1 [compound 26] | 3.4 | 0.8 | 6 | 5.2 | 0,1 °C
O=C(NCc1ccccc1C(F)(F)F)Nc1ccc2cc1OCCOCCNc1ccn3ncc-2c3n1 [compound 27] | 2.8 | 1.2 | 5.4 | 4 | 0,1 °C
O=C(NCc1ccc(C(F)(F)F)cc1)Nc1ccc2cc1OCCOCCNc1ccn3ncc-2c3n1 [compound 28] | 3.2 | 1 | 5.1 | 2.4 | 0,3 °C
COc1ccccc1CNC(=O)Nc1ccc2cc1OCCOCCNc1ccn3ncc-2c3n1 [compound 29] | 4 | 0.6 | 4.5 | 3.1 | 0,0 °C
COc1cccc(CNC(=O)Nc2ccc3cc2OCCOCCNc2ccn4ncc-3c4n2)c1 [compound 30] | 4.3 | 0.8 | 4.7 | 5.8 | -0,1 °C
COc1ccc(CNC(=O)Nc2ccc3cc2OCCOCCNc2ccn4ncc-3c4n2)cc1 [compound 31] | 4.6 | 1.1 | 6.2 | 5.1 | 0,0 °C
COc1ccc(CNC(=O)Nc2ccc3cc2OCCOCCNc2ccn4ncc-3c4n2)cc1F [compound 32] | 4.4 | 0.9 | 6 | 5.3 | 0,2 °C
COc1cc(CNC(=O)Nc2ccc3cc2OCCOCCNc2ccn4ncc-3c4n2)ccc1F [compound 33] | 3.7 | 1 | 6.2 | 7.6 | 0,1 °C
C[C@H](NC(=O)Nc1ccc2cc1OCCOCCNc1ccn3ncc-2c3n1)c1ccccc1 [compound 34] | 5.1 | 0.6 | 5.7 | 6 | -0,3 °C
CN1CCN(C(=O)Nc2ccc3cc2OCCOCCNc2ccn4ncc-3c4n2)CC1 [compound 35] | 3.5 | 0 | 3.8 | 1.7 | 0,1 °C
